Entries after “also recorded” stand apart in the source; their conditions may differ.
Test system: microglia
Format: in vivo
Procedure: Mice of the aged group in the nontargeted metabolomics analysis were 17-18 months old. Except for nontargeted metabolomics and microbiota profiling, where only male mice were used, all groups included mice from both sexes. Mice were housed under a 12-hour light/12-hour dark cycle and temperatures of 18-23° C. with 40-60% humidity, with food and water given ad libitum. To avoid cage effects, mice from at least three different cages per experimental group were analyzed. […] For modulation of CML in aged animals, 18-month-old SPF housed C57BL/6 mice were treated orally every third day for 10 weeks with vehicle (20% hydroxypropyl-p-cyclodextrin in 1× phosphate-buffered saline (PBS)), 10 mg kg^−1 ellagic acid (EA) or 3,000 U kg^−1 intestinal alkaline phosphatase (IAP). To assess in vivo intestinal permeability, tracer fluorescein isothiocyanate (FITC)-labeled dextran (4 kDa: Sigma-Aldrich) was used. Briefly, mice were deprived of food 4 hours before and both food and water 4 hours after oral gavage using 200 μl of 80 mg ml^−1 FITC-dextran. Blood was collected retro-orbitally after 4 hours and fluorescence intensity was measured on fluorescence plates using an excitation wavelength of 493 nm and an emission wavelength of 518 nm. To assess in vivo intestinal permeability to CML, mice were treated with […] CML (0.36 mM). Blood was collected retro-orbitally immediately before and 4 hours after treatment. CML translocated into the circulation was measured by liquid chromatography-mass spectrometry (LC-MS). All animal experiments were approved by the local administration in Germany (Regierungsprasidium Freiburg) and were performed in accordance with the respective national, federal, and institutional regulations and the guidelines of the Federation of European Laboratory Animal Science Associations.
Mice were lethally anesthetized with ketamine (100 mg kg^−1 body weight) and xylazine (10 mg kg^−1 body weight) followed by perfusion with 1×PBS through the left heart chamber. For histology, brains were kept overnight in 4% paraformaldehyde (PFA). For flow cytometry and magnetic-activated cell sorting (MACS) beads cell sorting, brains were dissected, homogenized and filtered through a […] mesh. […] Myelin was removed from the top layer and the cell pellet was washed once with 1×PBS followed by antibody staining.
Brain specimens from the cortex were first fixed overnight in 3% glutaraldehyde at 4° C., washed with Sorensen buffer, and then transferred to 1% osmium tetroxide for 2 hours at room temperature. Next, samples were dehydrated by a graded series of ethanol (30-100%) followed by 100% propylene oxide, resin/propylene oxide (1:2 (v/v)) and resin/propylene oxide (2:1 (v/v)). Samples were embedded in resin via polymerization for 24 hours at 75° C. Then, 700-nm semithin sections were cut and stained with 2% toluidine blue to define the region of interest for further preparation of 70 nm ultrathin sections using an ultramicrotome (Leica Reichert Ultracut S) after contrasting the sections with uranyl acetate and lead citrate (Leica Reichert Ultrastainer). To assess the mitochondrial phenotype in microglia, images were acquired with a ×7,900 or ×46,000 magnification using a CM100 electron microscope (Philips).
Cell sorting for RT-qPCR and RNA sequencing (RNA-seq) was performed on a MoFlo Astrios (Beckman Coulter; FIG. 7a). Before surface staining, dead cells were excluded by using the Fixable Viability Dye eFluor 780 (1:1,000 dilution; Thermo Fisher Scientific) followed by incubation with Fc receptor blocking antibody CD16/CD32 (1:200 dilution, clone 2.4G2; BD Bioscience). […] To assess microglial cellular reactive oxidative species (ROS), the CellROX DeepRed Reagent ([…]; Thermo Fisher Scientific) was used. To assess mitochondrial activity, Tetramethylrhodamine, Methyl Ester, Perchlorate (50 nM; Thermo Fisher Scientific) and MitoTracker Green FM (20 nM; Thermo Fisher Scientific) were used.

[1] = young-adult mice, i.p. once per day for two weeks

In the case of `N[C@@H](CCCCNCC(=O)O)C(=O)O` [CML, N^6-carboxymethyllysine], the “brain CML concentrations after intraperitoneal injection of CML” value (young-adult SPF mice, targeted metabolomics) is reported as “increased brain CML concentrations”, the “damage to mitochondrial structures in microglia (electron microscopy)” value (young-adult mice treated with CML i.p.) is reported as “caused mitochondrial dysfunction by directly inflicting damage to mitochondrial structures” and the “microglial gene expression (RNA-seq) after intraperitoneal injection” value (young-adult mice, CML versus vehicle) is reported as “upregulated the expression of the ROS-related genes S100a9 and S100A8; also recorded: upregulated the expression of the ROS-related genes, S100a9 and S100A8”. For the same molecule, the “cellular ATP stores in microglia” value [1] was “reduced cellular ATP stores”, the “metabolic function (metabolic/mitochondrial activity) of microglia” value [1] was “decreased metabolic activity” and the “recapitulation of the changes found in the microglia of aged mice” value [1] was “partially recapitulate the changes found in the microglia of aged mice”. The “intracellular ROS production / oxidative stress in microglia” value (young-adult mice, i.p. once per day for two weeks, CellROX) was “increased oxidative stress”.

From US20250170224A1, “METHODS AND COMPOSITIONS FOR TREATING MICROGLIAL DYSFUNCTION AND IMPROVING METABOLIC DYSFUNCTION” (Ultimate Medicine AG, priority 2021, published 2025)
